Results taken from PubChem BioAssay (NCI).
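Each compound was tested at five concentrations against cells in 96-well plates for 48 hours. GI50 marks 50% less growth. Definition used: TGI = concentration required for complete inhibition of growth.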

Columns and labels:
Experiment in all cases: inhibition of tumour cell growth, NCI panel, 48 h; in the data active means GI50 below about 0.43 µM; inactive means the rest
SR leukemia = tested on: SR leukemia
PC-3 prostate = tested on: PC-3 prostate
CCRF-CEM leukemia = tested on: CCRF-CEM leukemia
NCI-H460 lung = tested on: NCI-H460 lung
OVCAR-3 ovarian = tested on: OVCAR-3 ovarian
HCT-116 colon = tested on: HCT-116 colon
NCI-H522 lung = tested on: NCI-H522 lung
DU-145 prostate = tested on: DU-145 prostate
TK-10 renal = tested on: TK-10 renal
MDA-MB-435 = tested on: MDA-MB-435
786-0 renal = tested on: 786-0 renal
SF-295 CNS = tested on: SF-295 CNS
HL-60(TB) leukemia = tested on: HL-60(TB) leukemia
MCF7 breast = tested on: MCF7 breast
MALME-3M melanoma = tested on: MALME-3M melanoma
UACC-62 melanoma = tested on: UACC-62 melanoma
NCI-H23 lung = tested on: NCI-H23 lung
T-47D breast = tested on: T-47D breast
OVCAR-5 ovarian = tested on: OVCAR-5 ovarian
CAKI-1 renal = tested on: CAKI-1 renal
LOX IMVI melanoma = tested on: LOX IMVI melanoma
HOP-92 NSCLC = tested on: HOP-92 NSCLC
COLO 205 colon = tested on: COLO 205 colon
SN12C renal = tested on: SN12C renal
EKVX NSCLC = tested on: EKVX NSCLC
IGROV1 ovarian = tested on: IGROV1 ovarian
A498 renal = tested on: A498 renal
OVCAR-8 ovarian = tested on: OVCAR-8 ovarian
SNB-75 CNS = tested on: SNB-75 CNS
MDA-MB-231 breast = tested on: MDA-MB-231 breast
SNB-19 CNS = tested on: SNB-19 CNS
SF-539 CNS = tested on: SF-539 CNS
OVCAR-4 ovarian = tested on: OVCAR-4 ovarian
HOP-62 NSCLC = tested on: HOP-62 NSCLC
SK-OV-3 ovarian = tested on: SK-OV-3 ovarian
K-562 leukemia = tested on: K-562 leukemia
HCT-15 colon = tested on: HCT-15 colon
BT-549 breast = tested on: BT-549 breast
U251 CNS = tested on: U251 CNS
HT29 colon = tested on: HT29 colon
A549 NSCLC = tested on: A549 NSCLC
RPMI-8226 leukemia = tested on: RPMI-8226 leukemia
M14 melanoma = tested on: M14 melanoma
SK-MEL-2 melanoma = tested on: SK-MEL-2 melanoma
SW-620 colon = tested on: SW-620 colon
MOLT-4 leukemia = tested on: MOLT-4 leukemia
UO-31 renal = tested on: UO-31 renal
NCI/ADR-RES ovarian = tested on: NCI/ADR-RES ovarian
NCI-H226 lung = tested on: NCI-H226 lung
SK-MEL-5 melanoma = tested on: SK-MEL-5 melanoma
UACC-257 melanoma = tested on: UACC-257 melanoma

O=C1Nc2ccccc2/C1=C/C(=O)c1ccc(N2CCCC2)cc1
4.24 µM: TGI (HCT-116 colon)
4.42 µM: TGI (SR leukemia)
> 100 µM: TGI (CCRF-CEM leukemia) | TGI (NCI-H522 lung) | TGI (DU-145 prostate) | TGI (TK-10 renal) | TGI (MDA-MB-435) | TGI (786-0 renal) | TGI (SF-295 CNS) | TGI (MCF7 breast) | TGI (MALME-3M melanoma) | TGI (NCI-H23 lung) | TGI (OVCAR-5 ovarian) | TGI (CAKI-1 renal) | TGI (SN12C renal) | TGI (EKVX NSCLC) | TGI (A498 renal) | TGI (MDA-MB-231 breast) | TGI (SNB-19 CNS) | TGI (OVCAR-4 ovarian) | TGI (HOP-62 NSCLC) | TGI (SK-OV-3 ovarian) | TGI (K-562 leukemia) | TGI (BT-549 breast) | TGI (U251 CNS) | TGI (A549 NSCLC) | TGI (SK-MEL-2 melanoma) | TGI (UO-31 renal) | TGI (NCI-H226 lung) | TGI (SK-MEL-5 melanoma) | TGI (UACC-257 melanoma)
6.38 µM: TGI (T-47D breast)
4.96 µM: TGI (COLO 205 colon)
9.07 µM: TGI (IGROV1 ovarian)
3.01 µM: TGI (SW-620 colon)
6.91 µM: TGI (SNB-75 CNS)
7.11 µM: TGI (HOP-92 NSCLC)
active: GI50 (SR leukemia) 0.327 µM | GI50 (SW-620 colon) 0.339 µM
4.83 µM: TGI (OVCAR-3 ovarian)
4.56 µM: TGI (HL-60(TB) leukemia)
inactive: GI50 (PC-3 prostate) 1.77 µM | GI50 (CCRF-CEM leukemia) 2 µM | GI50 (NCI-H460 lung) 2.86 µM | GI50 (OVCAR-3 ovarian) 1.79 µM | GI50 (HCT-116 colon) 1.56 µM | GI50 (NCI-H522 lung) 2.28 µM | GI50 (DU-145 prostate) 3.2 µM | GI50 (TK-10 renal) 3.24 µM | GI50 (MDA-MB-435) 1.25 µM | GI50 (786-0 renal) 2.84 µM | GI50 (SF-295 CNS) 3.96 µM | GI50 (HL-60(TB) leukemia) 1.24 µM | GI50 (MCF7 breast) 2.05 µM | GI50 (MALME-3M melanoma) 2.84 µM | GI50 (UACC-62 melanoma) 2.78 µM | GI50 (NCI-H23 lung) 5.2 µM | GI50 (T-47D breast) 2.12 µM | GI50 (OVCAR-5 ovarian) 4.54 µM | GI50 (CAKI-1 renal) 1.2 µM | GI50 (LOX IMVI melanoma) 1.73 µM | GI50 (HOP-92 NSCLC) 1.75 µM | GI50 (COLO 205 colon) 1.67 µM | GI50 (SN12C renal) 3.26 µM | GI50 (EKVX NSCLC) 6.09 µM | GI50 (IGROV1 ovarian) 1.71 µM | GI50 (A498 renal) 3.45 µM | GI50 (OVCAR-8 ovarian) 1.62 µM | GI50 (SNB-75 CNS) 2.05 µM | GI50 (MDA-MB-231 breast) 3.73 µM | GI50 (SNB-19 CNS) 3.8 µM | GI50 (SF-539 CNS) 2.11 µM | GI50 (OVCAR-4 ovarian) 3.1 µM | GI50 (HOP-62 NSCLC) 2.47 µM | GI50 (SK-OV-3 ovarian) 3.4 µM | GI50 (K-562 leukemia) 0.833 µM | GI50 (HCT-15 colon) 0.686 µM | GI50 (BT-549 breast) 3.27 µM | GI50 (U251 CNS) 2.89 µM | GI50 (HT29 colon) 1.2 µM | GI50 (A549 NSCLC) 3.34 µM | GI50 (RPMI-8226 leukemia) 1.98 µM | GI50 (M14 melanoma) 2.28 µM | GI50 (SK-MEL-2 melanoma) 3.87 µM | GI50 (MOLT-4 leukemia) 2.02 µM | GI50 (UO-31 renal) 2.14 µM | GI50 (NCI/ADR-RES ovarian) 2.15 µM | GI50 (NCI-H226 lung) 4.35 µM | GI50 (SK-MEL-5 melanoma) 2.96 µM | GI50 (UACC-257 melanoma) 4.3 µM
4.75 µM: TGI (SF-539 CNS)
9.7 µM: TGI (HCT-15 colon)
8.17 µM: TGI (NCI-H460 lung)
8.04 µM: TGI (PC-3 prostate)
4.5 µM: TGI (OVCAR-8 ovarian)
22.3 µM: TGI (M14 melanoma)
9.81 µM: TGI (UACC-62 melanoma)
6.5 µM: TGI (NCI/ADR-RES ovarian)
5.31 µM: TGI (RPMI-8226 leukemia)
3.56 µM: TGI (LOX IMVI melanoma)
